The target in test [1] is T1, IGF-1R (Homo sapiens, UniProt P08069). The test is described as follows: TR-FRET, dissociation of biotinylated-20E2 from IGF-1R. It is filed as binding. To be noted: peptides 100 μM, IGF-1 30 μM. As to the method:
Best fit non-linear regression analysis of the data, was used to determine dissociation rate constants. Each data point represents a single observation.
Reactions were allowed to reach equilibrium for 6 h at RT.
On the technique in general: In TR-FRET formats the signal depends on donor and acceptor labels being close together.

For test [2], the target named is soluble human insulin mini-receptor (mIR) (Homo sapiens, UniProt P06213, DEL496-730). The test is described as follows: Fluorescence polarization competition with FITC-RP9, mIR. To be noted: target mIR, label FITC-RP9, FP. It is filed as binding. (In fluorescence polarisation assays a small probe gives low polarisation when free and higher when bound to something large.)

Test [3] deals with T1, IGF-1R. To be noted: TR-FRET at rhIGF-1R versus FP at sIR-Fc, summary of Table 22.
The target of test [4] is insulin receptor construct transfected into 32D cells (Homo sapiens, UniProt P06213). The test is described as follows: IR autophosphorylation assay in IR transfected 32D cells (ELISA). To be noted: MBP fusion peptides, FIG. 30.
For test [5], the target named is T2, soluble human insulin receptor-immunoglobulin heavy chain chimera (sIR-Fc) (Homo sapiens, UniProt P06213).
T2 construct: replacing the transmembrane domain and the intracellular domain of IR with constant domains from immunoglobulin Fc or λ subunits; made in house; host or cells: human embryonic kidney 293 cells (as described for the Bass construct)
The test is described as follows: Fluorescence polarization competition with FITC-RP9, sIR-Fc. It is filed as binding. As to conditions: FP, FITC-RP9, summary of Table 22.

The test system of the next test is MiaPaCa cells. The test is described as follows: MiaPaCa cell proliferation assay, agonist format. It is filed as cell-based, human. As to conditions: serum-free conditions.
Test [6] deals with MCF-7 cells. The test is described as follows: MCF-7 cell proliferation assay, agonist format. It is filed as cell-based, human.
Test [7] concerns the target T1, IGF-1R. The test is described as follows: Phage ELISA, binding of phage clones to IGF-1R (ratio over background). More on the design: included the heterotetrameric (alpha 2-beta 2) extracellular domain of IGF-1R isolated from a mouse myeloma cell line; purchased R&D Systems 391-GR/CF; host or cells: mouse myeloma cell line. To be noted: ratio of IGF-1R divided by ratio of IR. (In an ELISA, binding on a coated surface is turned into a signal by an enzyme label.)

The target of a further test is T3, IR (Homo sapiens, UniProt P06213).
T3 construct: replacing the transmembrane domain and the intracellular domain of IR with constant domains from immunoglobulin Fc or λ subunits; made in house; host or cells: human embryonic kidney 293 cells (as described for the Bass construct)
The test is described as follows: Phage ELISA, binding of phage clones to IR (ratio over background). As to conditions: ratio of IR divided by ratio of IGF-1R.

The subject of test [8] is FDC-P2 cells expressing the IL-3 and human IGF-1R receptors. The test is described as follows: IGF-1 proliferation assay in FDC-P2 cells, antagonist format.
The target in test [9] is His-tagged soluble recombinant human IGF-1R (srhIGF-1R-his) (Homo sapiens, UniProt P08069). The test is described as follows: ALPHAScreen binding assay, competition with b-hIGF-1. As to conditions: Table 29.
In test [10] the test system is FDC-P2 cells expressing the IL-3 and human IGF-1R receptors.
Test [11] deals with MCF-7 cells. The test is described as follows: MCF-7 cell proliferation assay, antagonist format (50 nM IGF-1). To be noted: proliferation assays in the presence of IGF-1 using MCF-7 and MiaPaCa cells; Table 23.

5 compounds from patent US20090053807A1 (Novo Nordisk A/S, priority 1998, published 2009) can be followed below.

Where only a bound is given, the exact number is not on record here.

Consider FHENFYDWFVQRVSKK [Peptide H2C], for which the “rate of dissociation of b-20E2” value on IGF-1R [1] is “similar”. Also, the Hill in test [2] is on record as −0.89. Also, the “binding ratio for IGF-1R over IR” value on IGF-1R [3] is “lower binding ratios for IGF-1R over IR”. The “stimulation of autophosphorylation of IR” value in [4] was “stimulate autophosphorylation of IR”. For the same compound, the “affinity / potency at IR” value in test [5] is recorded as “slightly less potent”.
Regarding “IGF-1: Insulin-like growth factor 1, from PeproTech; control”, the “ED50, proliferation” value in the test with MiaPaCa cells was found to be 5 nM; with MCF-7 cells [6] (MCF-7, serum-free conditions), 5 nM.
Regarding “FYVQQYWGHENFYDWFDRQVSQSGGAG [H2CA-4-P1-IGFR]”, the “Comparisons IGF-1R/IR” value with IGF-1R [7] amounted to 3.8. Besides, the “Comparisons IR/IGF-1R” value with IR is listed as 0.3.
By IC50 is commonly meant the concentration needed to halve the response being measured. As to “GIISQSCPESFYDWFAGQVSDPWWCW [Peptide G33]”, the “antagonist activity at IGF-1R” value in [8] is listed as “no antagonist activity”. Moreover, in the test on MCF-7 cells [6] (MCF-7 and MiaPaCa cell proliferation (Tables 27-28)), the “IGF-1R agonist activity” value is given as “IGF-1R agonist activity”. Besides, the IC50 in test [9] was found to be 600 nM. Besides, in test [10] (FDC-P2 cells), the “ED50, agonist activity at IGF-1R” value is roughly 10000 nM and the “agonist activity at IGF-1R” value is reported as “IGF-1R agonist activity”. Besides, in test [10] (FDC-P2 cells, agonist format, Table 15), the “ED50 Growth” value worked out at 500 nM. Also, in [10] (FDC-P2 cells, Table 15), the “Max Action” value was greater than 50%. Further, the “FDC-P2 Agonist” value in [10] (Table 30) was “+”. In addition, the “affinity / potency at IR” value in test [5] is recorded as “less potent”.
As for `CC(C)C[C@@H]1NC(=O)[C@@H](NC(=O)[C@H](CO)NC(=O)[C@H](Cc2ccc(O)cc2)NC(=O)[C@H](Cc2ccccc2)NC(=O)[C@@H](N)CO)CSSC[C@@H](C(=O)N[C@@H](CCCNC(=N)N)C(=O)N[C@@H](CCCCN)C(=O)N[C@@H](CCCCN)C(=O)O)NC(=O)CNC(=O)[C@H](CC(=O)O)NC(=O)[C@H](Cc2c[nH]c3ccccc23)NC(=O)[C@H](CCC(N)=O)NC(=O)CNC(=O)[C@H](CCCNC(=N)N)NC(=O)[C@H](CO)NC(=O)[C@H](CCCCN)NC(=O)[C@H](CCC(=O)O)NC(=O)[C@H](C)NC(=O)[C@@H]2CCCN2C(=O)CNC(=O)[C@H](CC(N)=O)NC(=O)[C@H](C(C)C)NC(=O)[C@H](CC(C)C)NC(=O)[C@H](CO)NC(=O)[C@H](CCC(=O)O)NC1=O` [RP33-IGF with KK], the Activ. result in the test on MCF-7 cells [11] is on record as “Antag”.
